# Measurements from patent publication US9388389B2, “JFH-1 based HCV cell culture systems for NS5A of genotypes 1-7” (Hvidovre Hospital, priority 2009, dated 2016).
# Tests used:
# genotype 1 replicons = details: cited from earlier work
# [1] = tested on: J6/JFH1 with NS5A mutation K30A; assay: BMS-790052 treatment of infected cultures; type: cell-based, hepatitis C virus
# [2] = tested on: J6/JFH1 with NS5A mutation L27I; assay: BMS-790052 treatment of infected cultures; type: cell-based, hepatitis C virus
# [3] = tested on: HCV NS5A genotype 1-7 recombinants; assay: BMS-790052 treatment of infected cultures, high-throughput assay; type: cell-based; details: Hepatitis C virus, most isolates
# Protocol: (§1) 5×10^3 naïve Huh7.5 cells were plated per well in a poly-D-lysine coated 96-well plate (Nunc, Roskilde, D K) one day before infection with different recombinant viruses. Infectious doses were chosen to aim at 400-1000 single infected cells in non-treated wells at the end of the experiment. J6/JFH1 was included with two infectious doses (high and low) to control for impact of dose variability. The infectious dose of other recombinants was in the range between. […] On day three cells were fixed and immunostained for NS3 expression as described above. In parallel, cell viability was monitored with CellTiter™ 96 AQueous One Solution Cell Proliferation Assay (Promega, Madison, Wis. USA). The number of single infected cells was determined by automated counting of individual wells as described above.
# (§2) To improve HCV treatment, much attention has been drawn to development of specific small molecule HCV inhibitors, including inhibitors of NS5A. Using the NS5A genotype recombinants, we investigated sensitivity to the NS5A inhibitor most advanced in clinical trials, BMS-790052. Treatment experiments using the specific NS5A inhibitor BMS-790052 (synthesized by Acme Bioscience, Palo Alto, Calif., USA) were conducted similar to what was described for interferon-alpha.
# ED43(4a)-Y93H = assay: BMS-790052 treatment of infected cultures; type: cell-based, hepatitis C virus
# Protocol: as §1, §2
# (§3) The best described resistance mutation for this drug class, change of NS5A residue 93, induced >10-fold resistance to BMS-790052 for genotype 1 replicons. We changed this residue to histidine in the NS5A genotype 1-6 recombinants; QC69(7a) naturally had histidine. In BMS-790052 treatment experiments, H77C(1a)-Y93H, JFH1(2a)-Y93H and S52(3a)-Y93H were >1000-fold, J4(1b)-Y93H, J6(2a)-Y93H and ED43(4a)-Y93H˜100-fold, and SA13(5a)-T93H and HK6a(6a)-T93H<5-fold more resistant than the respective original recombinants (Table 21). […] The presence of L31M in the J6(2a) isolate and C92E in the S52(3a) isolate corresponded to the higher resistance of these isolates. Further, the lower sensitivity of J1(1a) compared to other 1a recombinants could be caused by the histidine found at NS5A residue 30, previously associated with resistance in patients.
# [4] = tested on: J6/JFH1 with JFH1 NS5A domain I exchanged to the J6 sequence; assay: BMS-790052 treatment of infected cultures; type: cell-based, hepatitis C virus
# Protocol: as §1, §2, §3
# SA13(5a)-T93H = assay: BMS-790052 treatment of infected cultures; type: cell-based, hepatitis C virus
# Protocol: as §1, §2, §3
# [5] = tested on: J6/JFH1 with NS5A mutation L31M; assay: BMS-790052 treatment of infected cultures; type: cell-based, hepatitis C virus
# Protocol: as §1, §2, §3
# H77C(1a)-Y93H = assay: BMS-790052 treatment of infected cultures; type: cell-based, hepatitis C virus
# Protocol: as §1, §2, §3
# J6(2a)-Y93H = assay: BMS-790052 treatment of infected cultures; type: cell-based, hepatitis C virus
# Protocol: as §1, §2, §3
# S52(3a)-Y93H = assay: BMS-790052 treatment of infected cultures; type: cell-based, hepatitis C virus
# Protocol: as §1, §2, §3
smiles,measurement,setting,value
COC(=O)N[C@H](C(=O)N1CCC[C@H]1c1nc(-c2ccc(-c3ccc(-c4c[nH]c([C@@H]5CCCN5C(=O)[C@@H](NC(=O)OC)C(C)C)n4)cc3)cc2)c[nH]1)C(C)C [BMS-790052],fold resistance induced by change of NS5A residue 93,genotype 1 replicons,> 10 fold
same,EC50,"[1]; Hepatitis C virus, JFH1(2a), NS5A mutation K30A, single experiment of three replicates, read-out: NS5A inhibitor, EC50 (nM), putative resistance mutant",0.034 nM
same,Fold resistance compared to original,[1]; JFH1(2a) K30A vs original JFH1(2a),0.38 fold
same,EC50,"[2]; Hepatitis C virus, JFH1(2a), NS5A mutation L27I, single experiment of three replicates, read-out: NS5A inhibitor, EC50 (nM), putative resistance mutant",0.14 nM
same,Fold resistance compared to original,[2]; JFH1(2a) L27I vs original JFH1(2a),1.6 fold
same,EC50,[3],< 0.1 nM
same,Fold resistance compared to original,ED43(4a)-Y93H; ED43(4a) Y93H vs original ED43(4a),30 fold
same,fold more resistant than the respective original recombinant,ED43(4a)-Y93H; ED43(4a)-Y93H,~100 fold
same,EC50,"ED43(4a)-Y93H; Hepatitis C virus, read-out: NS5A inhibitor, EC50 (nM), putative resistance mutant",0.53 nM
same,EC50,"[4]; Hepatitis C virus, genotype 2a, J6 (domain I), single experiment of three replicates, read-out: NS5A inhibitor, EC50 (nM), original",19 nM
same,resistance,[4]; exchange of JFH1 NS5A domain I to the corresponding J6 sequence,confer resistance
same,EC50,"SA13(5a)-T93H; Hepatitis C virus, SA13(5a), NS5A mutation T93H, read-out: NS5A inhibitor, EC50 (nM), putative resistance mutant",0.14 nM
same,Fold resistance compared to original,SA13(5a)-T93H; SA13(5a) T93H vs original SA13(5a),4.2 fold
same,fold more resistant than the respective original recombinant,SA13(5a)-T93H; SA13(5a)-T93H,< 5 fold
same,EC50,"[5]; Hepatitis C virus, JFH1(2a), NS5A mutation L31M, single experiment of three replicates, read-out: NS5A inhibitor, EC50 (nM), putative resistance mutant",17 nM
same,Fold resistance compared to original,[5]; JFH1(2a) L31M vs original JFH1(2a),190 fold
same,resistance,[5]; NS5A L31M in the J6/JFH1 background,confer resistance
same,Fold resistance compared to original,H77C(1a)-Y93H; H77C(1a) Y93H vs original H77C(1a),4300 fold
same,fold more resistant than the respective original recombinant,H77C(1a)-Y93H; H77C(1a)-Y93H,> 1000 fold
same,EC50,"H77C(1a)-Y93H; Hepatitis C virus, H77C(1a), NS5A mutation Y93H, read-out: NS5A inhibitor, EC50 (nM), putative resistance mutant",110 nM
same,EC50,"J6(2a)-Y93H; Hepatitis C virus, J6(2a), NS5A mutation Y93H, read-out: NS5A inhibitor, EC50 (nM), putative resistance mutant",2000 nM
same,Fold resistance compared to original,J6(2a)-Y93H; J6(2a) Y93H vs original J6(2a),140 fold
same,fold more resistant than the respective original recombinant,J6(2a)-Y93H; J6(2a)-Y93H,~100 fold
same,EC50,"S52(3a)-Y93H; Hepatitis C virus, S52(3a), NS5A mutation Y93H, read-out: NS5A inhibitor, EC50 (nM), putative resistance mutant",1900 nM
same,Fold resistance compared to original,S52(3a)-Y93H; S52(3a) Y93H vs original S52(3a),2100 fold
same,fold more resistant than the respective original recombinant,S52(3a)-Y93H; S52(3a)-Y93H,> 1000 fold
